According to the NIST ThermoML archive (doi:10.1016/j.fluid.2012.01.008):
± gives the expanded uncertainty stated by the source.

Details: 313.15 K; Liquid; Closed cell (Static) method

SMILES	vapor or sublimation pressure [kPa]
CCCCCCC [heptane]	12.34 ± 0.03
Cc1ccccc1 [toluene]	7.886 ± 0.022
